Data: US20120172302A1, “COMPOSITION FOR THE TREATMENT OF BENIGN PROSTATE HYPERPLASIA” (priority 2009, published 2012)
Square brackets hold non-standard residues; d marks the D form. Peptide text beside a SMILES is read from it. * marks the point of attachment. dPhe(4-NHCONH2) = NC(=O)Nc1ccc(C[C@@H](N)C(=O)O)cc1; Dihydroorotyl(S) = O=C1C[C@@H](C(=O)*)NC(=O)N1; dPhe(4-Cl) = N[C@H](Cc1ccc(Cl)cc1)C(=O)O; Phe(4-NH2) = Nc1ccc(C[C@H](N)C(=O)O)cc1; d2Nal = N[C@H](Cc1ccc2ccccc2c1)C(=O)O; Lys(iPr) = CC(C)NCCCC[C@H](N)C(=O)O; d3Pal = N[C@H](Cc1cccnc1)C(=O)O

Legend:
patients with BPH = experiment: IPSS global quality of life (QoL) question, clinical trial; type: in vivo, men; details: for Percentage of patients feeling delighted, pleased, or mostly satisfied (IPSS Global QoL scores 0-2) / Percentage of patients feeling unhappy or terrible (IPSS Global QoL scores 5 and 6): combined group
Method: For each patient, the following parameters were measured or assessed (using the methods discussed below), at time points of screening (e.g. −7 days) day 0 (“baseline”), day 14, day 28 and day 42:
After the initial 6-week treatment period of the exploratory study had been completed, a 12-month follow-up period looking at long-term efficacy commenced. Interim data of the main efficacy variables (IPSS, IPSS Global QoL, prostate volume, urinary flow, and post-void residual volume—measured as set out below) after 6 months' follow-up are also presented herein Table 1, 2, 3 FIG. 1b), together with some IPSS data at 9 and 12 months (FIG. 1b).
Included in the IPSS is one item to evaluate QoL (IPSS-global QoL). The Global QoL Question was developed alongside the IPSS and was officially included as part of the IPSS in 1993 when the WHO formally recommended the IPSS for both symptom and QoL assessment. […] This question assesses the degree to which patients find their symptoms bothersome. Patients are asked about how they would feel if they were to spend the rest of their lives with their prostate symptoms just as they are now. The choices for answering this quality of life question ranged from “delighted” (rating=0) to “terrible” (rating=6).

testosterone = experiment: Serum testosterone concentration-time profile (LC-MS/MS), clinical trial; type: in vivo, men; details: for Mean time to second return of testosterone to baseline interval (after the second administration): only hypothetical (calculated, not measured)
[1] = Month 6 follow-up, 32 mg group, n=7
[2] = Month 6 follow-up, 64 mg group, n=4
[3] = Month 6 follow-up, 16+16 mg group, n=6
[4] = Month 6 follow-up, 32+32 mg group, n=7
[5] = 16+16 mg group, after the first administration
[6] = 16+16 mg group, after the second administration
[7] = 32+32 mg group, after the first administration
[8] = 32+32 mg group, after the second administration
[9] = first dose of the 32+32 mg group combined with the single dose 32 mg data

CC(=O)N[C@H](Cc1ccc2ccccc2c1)C(=O)N[C@H](Cc1ccc(Cl)cc1)C(=O)N[C@H](Cc1cccnc1)C(=O)N[C@@H](CO)C(=O)N[C@@H](Cc1ccc(NC(=O)[C@@H]2CC(=O)NC(=O)N2)cc1)C(=O)N[C@H](Cc1ccc(NC(N)=O)cc1)C(=O)N[C@@H](CC(C)C)C(=O)N[C@@H](CCCCNC(C)C)C(=O)N1CCC[C@H]1C(=O)N[C@H](C)C(N)=O [Degarelix, D-Alaninamide, N-acetyl-3-(2-naphthalenyl)-D-alanyl-4-chloro-D-phenylalanyl-3-(3-pyridinyl)-D-alanyl-L-seryl-4-[[[(4S)-hexahydro-2,6-dioxo-4-pyrimidinyl]carbonyl]amino]-L-phenylalanyl-4-[(aminocarbonyl)amino]-D-phenylalanyl-L leucyl-N6-(1-methylethyl)-L-lysyl-L-prolyl] (Ac-[d2Nal][dPhe(4-Cl)][d3Pal]S[Phe(4-NH2)](Dihydroorotyl(S))[dPhe(4-NHCONH2)]L[Lys(iPr)]P[dA]-NH2)
Mean IPSS global QoL score (patients with BPH; Baseline of 6-month follow-up patients, 32 mg group, n=7): 2.8 (n = 7)
Mean IPSS global QoL score (patients with BPH; Baseline of 6-month follow-up patients, 64 mg group, n=4): 4.6 (n = 4)
Mean IPSS global QoL score (patients with BPH; Baseline of 6-month follow-up patients, 16+16 mg group, n=6): 4.5 (n = 6)
Mean IPSS global QoL score (patients with BPH; Baseline of 6-month follow-up patients, 32+32 mg group, n=7): 4.3 (n = 7)
Mean IPSS global QoL score (patients with BPH; Baseline, 32 mg group, N=12): 3.8 (1.7)
Mean IPSS global QoL score (patients with BPH; Baseline, 64 mg group, N=13): 4.7 (1.4)
Mean IPSS global QoL score (patients with BPH; Baseline, 16+16 mg group, N=13): 4.2 (1.1)
Mean IPSS global QoL score (patients with BPH; Baseline, 32+32 mg group, N=12): 4.3 (1.3)
IPSS global QoL mean change from baseline (patients with BPH; Day 42, 32 mg group): −2.1 (3.0)
Mean IPSS global QoL score (patients with BPH; Day 42, 32 mg group): 1.8 (2.0)
IPSS global QoL mean change from baseline (patients with BPH; Day 42, 64 mg group): −2.2 (1.6)
Mean IPSS global QoL score (patients with BPH; Day 42, 64 mg group): 2.5 (1.3)
IPSS global QoL mean change from baseline (patients with BPH; Day 42, 16+16 mg group): −1.2 (1.4)
Mean IPSS global QoL score (patients with BPH; Day 42, 16+16 mg group): 2.9 (1.4)
IPSS global QoL mean change from baseline (patients with BPH; Day 42, 32+32 mg group): −2.4 (1.9)
Mean IPSS global QoL score (patients with BPH; Day 42, 32+32 mg group): 1.9 (1.6)
Percentage of patients feeling delighted, pleased, or mostly satisfied (IPSS Global QoL scores 0-2) (patients with BPH; Day 42): 58%
Percentage of patients feeling unhappy or terrible (IPSS Global QoL scores 5 and 6) (patients with BPH; Day 42): 12%
IPSS global QoL change from baseline (patients with BPH; [1]): −1.4 (1.1)
Mean IPSS global QoL score (patients with BPH; [1]): 1.4 (1.5)
IPSS global QoL change from baseline (patients with BPH; [2]): −0.8 (1.7)
Mean IPSS global QoL score (patients with BPH; [2]): 3.8 (1.3)
IPSS global QoL change from baseline (patients with BPH; [3]): −0.3 (0.5)
Mean IPSS global QoL score (patients with BPH; [3]): 4.2 (1.5)
IPSS global QoL change from baseline (patients with BPH; [4]): −2.7 (2.1)
Mean IPSS global QoL score (patients with BPH; [4]): 1.6 (0.8)
Percentage of patients feeling delighted, pleased, or mostly satisfied (IPSS Global QoL scores 0-2) (patients with BPH; baseline): 8%
Percentage of patients feeling unhappy or terrible (IPSS Global QoL scores 5 and 6) (patients with BPH; baseline): 48%
Mean minimal value of testosterone (Cnadir) (testosterone; 32 mg group): 0.9 ng/mL
Mean time for first return of testosterone to baseline interval after the first administration (testosterone; 32 mg group): 9.1 (SD=5.2) days
Mean time of testosterone Cnadir (tnadir) (testosterone; 32 mg group): 1.3 days
Number of patients with testosterone below the castration level 0.5 ng/mL at one or more time-points (testosterone; 32 mg group): 3 patients
Percentage of patients with testosterone below the castration level 0.5 ng/mL at one or more time-points (testosterone; 32 mg group): 25%
Testosterone greatest change from baseline (testosterone; 32 mg group): -4.2 ng/mL
Lowest mean testosterone level (testosterone; 32 mg group, on Day 1): 0.9 ng/mL
Mean area of testosterone concentrations below 0.5 ng/mL (testosterone; 32 mg group, range 0.0-0.1): 0.0 ng·days/mL
Mean minimal value of testosterone (Cnadir) (testosterone; 64 mg group): 0.4 ng/mL
Mean time of testosterone Cnadir (tnadir) (testosterone; 64 mg group): 8.8 days
Number of patients with testosterone below the castration level 0.5 ng/mL at one or more time-points (testosterone; 64 mg group): 9 patients
Percentage of patients with testosterone below the castration level 0.5 ng/mL at one or more time-points (testosterone; 64 mg group): 69%
Testosterone greatest change from baseline (testosterone; 64 mg group): -4.7 ng/mL
Number of patients still below testosterone 0.5 ng/mL on Day 42 (testosterone; 64 mg group, of the 8 patients with testosterone <=0.5 ng/mL): Five
Lowest mean testosterone level (testosterone; 64 mg group, on Day 1): 0.4 ng/mL
Mean area of testosterone concentrations below 0.5 ng/mL (testosterone; 64 mg group, range 0.0-15.2): 4.4 ng·days/mL
Time for testosterone level to recover above 0.5 ng/mL (testosterone; 64 mg group, the other three of 8 patients): ≤ 5 days
Duration of castration (testosterone below 0.5 ng/mL) (testosterone; 16+16 mg administration, the 2 castrated patients): less than 2 days
Mean time for first return of testosterone to baseline interval after the first administration (testosterone; 16+16 mg group): 6.1 (SD=2.8) days
Number of patients with testosterone below the castration level 0.5 ng/mL at one or more time-points (testosterone; 16+16 mg group): 2 patients
Percentage of patients with testosterone below the castration level 0.5 ng/mL at one or more time-points (testosterone; 16+16 mg group): 15%
Testosterone greatest change from baseline (testosterone; 16+16 mg group): -4.0 ng/mL
Mean minimal value of testosterone (Cnadir) (testosterone; [5]): 1.4 ng/mL
Mean time of testosterone Cnadir (tnadir) (testosterone; [5]): 1.1 days
Mean minimal value of testosterone (Cnadir) (testosterone; [6]): 2.0 ng/mL
Mean time of testosterone Cnadir (tnadir) (testosterone; [6]): 4.0 days
Lowest mean testosterone level (testosterone; 16+16 mg group, on Day 1): 1.4 ng/mL
Mean time to second return of testosterone to baseline interval (after the second administration) (testosterone; 16+16 mg group): 19.5 (SD=33.9) days
Mean area of testosterone concentrations below 0.5 ng/mL (testosterone; 16+16 mg group, range 0.0-0.0): 0.0 ng·days/mL
Time for testosterone level to recover above 0.5 ng/mL (testosterone; 16+16 and 32 mg groups, 4 of the 5 patients): ≤ 2 days
Time for testosterone level to recover above 0.5 ng/mL (testosterone; 16+16 and 32 mg groups, the remaining patient of 5): ≤ 4 days
Mean time for first return of testosterone to baseline interval after the first administration (testosterone; 32+32 mg group): 9.1 (SD=2.6) days
Number of patients not suppressed below 0.5 ng/mL after the first administration but reaching this level after the second injection (testosterone; 32+32 mg group): Five
Number of patients with testosterone below the castration level 0.5 ng/mL at one or more time-points (testosterone; 32+32 mg group): 9 patients
Number of subjects that had not regained testosterone levels >0.5 ng/mL at Day 42 (testosterone; 32+32 mg group): Three
Percentage of patients with testosterone below the castration level 0.5 ng/mL at one or more time-points (testosterone; 32+32 mg group): 75%
Testosterone greatest change from baseline (testosterone; 32+32 mg group): -4.1 ng/mL
Time for testosterone level to recover above 0.5 ng/mL (testosterone; 32+32 mg group, after first administration, 3 of 4 patients): ≤ 2 days
Mean minimal value of testosterone (Cnadir) (testosterone; [7]): 0.6 ng/mL
Mean time of testosterone Cnadir (tnadir) (testosterone; [7]): 3.2 days
Mean minimal value of testosterone (Cnadir) (testosterone; [8]): 0.4 ng/mL
Mean time of testosterone Cnadir (tnadir) (testosterone; [8]): 4.3 days
Lowest mean testosterone level (testosterone; 32+32 mg group, after the second administration, on Day 17): 0.4 ng/mL
Number of patients with testosterone below 0.5 ng/mL after the first degarelix administration (testosterone; 32+32 mg group, of the 9 patients with testosterone <=0.5 ng/mL): Four
Mean time to second return of testosterone to baseline interval (after the second administration) (testosterone; 32+32 mg group): 64.2 (SD=83.5) days
Mean area of testosterone concentrations below 0.5 ng/mL (testosterone; 32+32 mg group, range 0.0-15.3): 2.8 ng·days/mL
Mean testosterone level (testosterone; Day 42, 32 mg group): 5.3 ng/mL
Mean testosterone level (testosterone; Day 42, 64 mg group): 3.0 ng/mL
Mean testosterone level (testosterone; Day 42, 16+16 mg group): 4.5 ng/mL
Mean testosterone level (testosterone; Day 42, 32+32 mg group): 2.7 ng/mL
Number of patients with testosterone below the castration level 0.5 ng/mL at one or more time-points (testosterone; all groups, of the 50 patients, up to Day 42): 22 patients
Mean testosterone level (testosterone; baseline, 32 mg group): 5.2 ng/mL
Mean testosterone level (testosterone; baseline, 64 mg group): 5.2 ng/mL
Mean testosterone level (testosterone; baseline, 16+16 mg group): 5.5 ng/mL
Mean testosterone level (testosterone; baseline, 32+32 mg group): 4.5 ng/mL
Duration of castration (testosterone below 0.5 ng/mL) (testosterone; first dose of the 32+32 mg group combined with single dose 32 mg, the 8 castrated patients, generally): 2 to 4 days
Number of patients castrated (testosterone below 0.5 ng/mL) (testosterone; [9]): 8 patients
Percentage of patients castrated (testosterone below 0.5 ng/mL) (testosterone; [9]): 33%
Testosterone area below and time to return to the baseline interval, total 64 mg vs total 32 mg (testosterone; groups given a total of 64 mg degarelix compared to the total dose 32 mg): more than 2 fold
